From publication PMC11589101, “Profiling the endocrine-disrupting properties of triazines, triazoles, and short-chain PFAS” (Toxicological Sciences, 2024)
Where two headings read alike, the source gives them in different places.

Tests used:
[1] = test system: steroidogenesis in H295R cells; assay type: cell-based, human; conditions: for effect on steroid hormone levels compared with vehicle-treated controls: highest noncytotoxic exposure concentration
Protocol: All experiments were performed using cells in passages 5 to 10. First, the highest noncytotoxic concentration (<10% decrease in viability) was determined for each compound with MTT assays. Next, the levels of 13 steroid hormones were determined in the medium after exposure of the H295R cells to the highest noncytotoxic concentration using LC-MS/MS. These concentrations were tested in triplicate (n = 3) in 3 independent experiments (N = 3), and all 9 samples were measured in LC-MS/MS. […] These dilution series were tested in 3 independent experiments (N = 3), with triplicate exposures in each of these experiments (n = 3). Supernatants of the triplicate exposures per experiment were pooled after the 48 h of exposure and the 3 pooled samples were measured with LC-MS/MS. This was done to keep the number of LC-MS/MS measurements manageable.
The exposure medium was prepared by diluting stock solutions 1,000× in the cell culture medium to obtain a final concentration of 0.1% of the solvent. Exposure was started by replacing cell culture medium with the exposure medium. […] On a separate quality control plate, cells were exposed to 10 μM forskolin (Sigma-Aldrich) and 1 μM prochloraz (Sigma-Aldrich) to serve as positive control for increased and decreased steroid hormone secretion, respectively. Exposure was started by replacing the culture medium in the cell culture plates with the exposure medium.
After 48 h of exposure, the supernatant medium from each well was transferred to the wells of a clean 48-well plate, and that plate was stored at −80 °C for later steroid measurement. MTT assays were performed by adding 500 μl of 0.5 mg/ml MTT (3-(4,5-dimethylthiazol-2-yl)-2,5-diphenyltetrazolium bromide; Sigma-Aldrich) solution in medium to each well of the 24-well cell culture plate and incubating for 1 h at 37 °C with 5% CO2. After incubation, the MTT solution was discarded and 500 μl of DMSO was added to each well to lyse the cells and dissolve the formazan crystals. Plates were shaken at 700 rpm for 10 min and absorbance was measured at 560 nm wavelength.
Hormones were concentrated from supernatants by solid phase extraction using Bond Elut Plexa cartridges, 30 mg sorbent, 1.8 ml (Agilent Technologies, Santa Clara, CA, United States). The cartridges were conditioned with 1 ml of 0.5% formic acid in methanol, and subsequent addition of 1 ml of 0.5% formic acid in water. A mix of 100 μl of H295R medium sample in 1 ml of 2% formic acid in water and 50 μl of isotopically labeled internal standards mix (Table S1) was loaded on the cartridges. These were then washed with 1 ml of water followed by 1 ml of water–methanol mixture (70:30, v/v). Cartridges were dried by vacuum and the hormones were eluted with 700 μl of methanol into 96-well-deep well polypropylene plates. Eluates were evaporated to dryness during approximately 2 h in a refrigerated CentriVap vacuum concentrator and reconstituted in 150 μl of water–methanol mixture (1:1, v/v). Additionally, a serial 12-point dilution series of a mix of native steroid hormones was prepared to fit a calibration curve in order to quantify steroid concentrations.
The steroid hormones were separated prior to MS measurements on a Kinetex C18 LC Column (2.6 μm, 100 × 2.1 mm; Phenomenex, CA, United States) coupled to an Exion LC system (SCIEX, Framingham, MA, United States). The mobile phase consisted of 0.2 mM NH4F in water and pure methanol and was delivered at a flow rate of 0.6 ml/min in a gradient elution mode. The injection volume was 10 μl.
The LC-MS/MS raw data were processed using AB Sciex OS Analyst version 1.6.2 (SCIEX, Framingham, MA, United States) to calculate fold changes by dividing the measured hormone concentrations by the hormone concentrations in the vehicle controls. The fold changes were used to fit a concentration–response curve in GraphPad Prism using the same model as in the reporter gene assays, and the ECIR1.5 was estimated for each compound.

[2] = target: T1, human transthyretin (TTR) (Homo sapiens, UniProt P02766); assay: FITC-T4 TTR-binding assay, screening method; conditions: screening method; read-out: IC50 TTR-binding assay, Screening Method
Protocol: (§1) All incubations were performed at room temperature.
In the screening tests, 48 μl of Tris-HCl buffer (pH 8.0) was added to each well of black low-binding 96-well plates. Two microliters of each test compound dissolved in their respective solvent was added to each well and the plate was shaken at 600 rpm for 5 min. […] Fluorescence was measured again to check for possible autofluorescence or quenching by the test compound.
(§2) Fluorescence enhancement was determined for each well by subtracting its relative fluorescence units (RFU) before TTR addition from its RFUs after TTR addition. The resulting values were normalized to percentages of the vehicle control. A concentration–response curve was fitted through the data using the same model as in the reporter gene assays.

[3] = target: T1, human transthyretin (TTR); assay: FITC-T4 TTR-binding assay, initial (original) method; conditions: for IC10 competing with FITC-T4 for binding to TTR / IC50: initial method, 110 nM FITC-T4, 30 nM TTR; for IC50: read-out: IC50 competing with FITC-T4 for binding to TTR
Protocol: as §1, §2
After 15 min of incubation, fluorescence was measured and fluorescence enhancement was calculated by subtracting RFU without TTR from RFU with TTR. Further data analysis was similar to the screening assays.

Structure (SMILES): CC(C)(C)[C@@H](O)[C@@H](Cc1ccc(Cl)cc1)n1cncn1 (racemic) [Paclobutrazol]
- increased levels of progesterone and 17α-OH-progesterone compared with vehicle-treated controls ([1]; H295R, 48 h): up to 3.5 fold
- effect on steroid hormone levels compared with vehicle-treated controls ([1]; 48 h): increased levels of progesterone and decreased levels of androgens, estrogens, and corticosteroids

Structure (SMILES): Cc1cccc2[nH]nnc12 [4-methylbenzotriazole, 4-Methylbenzotriazole]
- IC50 [2]: 26.3 µM
- % FITCT4 bound to TTR ([3]; 0.1 uM): 96.4305%
- % FITCT4 bound to TTR ([3]; 0.3 uM): 93.5915%
- % FITCT4 bound to TTR ([3]; 1 uM): 89.9761%
- % FITCT4 bound to TTR ([3]; 3 uM): 82.6096%
- % FITCT4 bound to TTR ([3]; 10 uM): 67.1205%
- % FITCT4 bound to TTR ([3]; 30 uM): 47.648%
- % FITCT4 bound to TTR ([3]; 100 uM): 21.2593%
- IC10 competing with FITC-T4 for binding to TTR [3]: 1.3 µM
- IC50 [3]: 23.3 µM

Structure (SMILES): CCNc1nc(Cl)nc(NC(C)C)n1 [Atrazine]
- 11 deoxycorticosterone mean fold change ([1]; H295R, concentration 0.3 uM): 1.225 fold change
- 17aOH progesterone mean fold change ([1]; H295R, concentration 0.3 uM): 1.062 fold change
- 17b E2 mean fold change ([1]; H295R, concentration 0.3 uM): 1.11 fold change
- E1 mean fold change ([1]; H295R, concentration 0.3 uM): 0.9324 fold change
- androstenedione mean fold change ([1]; H295R, concentration 0.3 uM): 1.124 fold change
- corticosterone mean fold change ([1]; H295R, concentration 0.3 uM): 1.264 fold change
- cortisol mean fold change ([1]; H295R, concentration 0.3 uM): 1.18 fold change
- testosterone mean fold change ([1]; H295R, concentration 0.3 uM): 1.092 fold change
- 11 deoxycorticosterone mean fold change ([1]; H295R, concentration 1 uM): 1.279 fold change
- 17aOH progesterone mean fold change ([1]; H295R, concentration 1 uM): 1.128 fold change
- 17b E2 mean fold change ([1]; H295R, concentration 1 uM): 1.2477 fold change
- E1 mean fold change ([1]; H295R, concentration 1 uM): 1.144 fold change
- androstenedione mean fold change ([1]; H295R, concentration 1 uM): 1.188 fold change
- corticosterone mean fold change ([1]; H295R, concentration 1 uM): 1.609 fold change
- cortisol mean fold change ([1]; H295R, concentration 1 uM): 1.21 fold change
- testosterone mean fold change ([1]; H295R, concentration 1 uM): 1.129 fold change
- 11 deoxycorticosterone mean fold change ([1]; H295R, concentration 3 uM): 1.291 fold change
- 17aOH progesterone mean fold change ([1]; H295R, concentration 3 uM): 1.151 fold change
- 17b E2 mean fold change ([1]; H295R, concentration 3 uM): 1.487 fold change
- E1 mean fold change ([1]; H295R, concentration 3 uM): 1.415 fold change
- androstenedione mean fold change ([1]; H295R, concentration 3 uM): 1.193 fold change
- corticosterone mean fold change ([1]; H295R, concentration 3 uM): 1.535 fold change
- cortisol mean fold change ([1]; H295R, concentration 3 uM): 1.258 fold change
- testosterone mean fold change ([1]; H295R, concentration 3 uM): 1.198 fold change
- 11 deoxycorticosterone mean fold change ([1]; H295R, concentration 10 uM): 1.493 fold change
- 17aOH progesterone mean fold change ([1]; H295R, concentration 10 uM): 1.43 fold change
- 17b E2 mean fold change ([1]; H295R, concentration 10 uM): 2.183 fold change
- E1 mean fold change ([1]; H295R, concentration 10 uM): 2.232 fold change
- androstenedione mean fold change ([1]; H295R, concentration 10 uM): 1.47 fold change
- corticosterone mean fold change ([1]; H295R, concentration 10 uM): 2.296 fold change
- cortisol mean fold change ([1]; H295R, concentration 10 uM): 1.583 fold change
- testosterone mean fold change ([1]; H295R, concentration 10 uM): 1.47 fold change
- 11 deoxycorticosterone mean fold change ([1]; H295R, concentration 30 uM): 1.712 fold change
- 17aOH progesterone mean fold change ([1]; H295R, concentration 30 uM): 1.877 fold change
- 17b E2 mean fold change ([1]; H295R, concentration 30 uM): 2.732 fold change
- E1 mean fold change ([1]; H295R, concentration 30 uM): 3.048 fold change
- androstenedione mean fold change ([1]; H295R, concentration 30 uM): 1.542 fold change
- corticosterone mean fold change ([1]; H295R, concentration 30 uM): 2.489 fold change
- cortisol mean fold change ([1]; H295R, concentration 30 uM): 1.7 fold change
- testosterone mean fold change ([1]; H295R, concentration 30 uM): 1.645 fold change
- 11 deoxycorticosterone mean fold change ([1]; H295R, concentration 100 uM): 2.107 fold change
- 17aOH progesterone mean fold change ([1]; H295R, concentration 100 uM): 2.139 fold change
- 17b E2 mean fold change ([1]; H295R, concentration 100 uM): 2.968 fold change
- E1 mean fold change ([1]; H295R, concentration 100 uM): 3.994 fold change
- androstenedione mean fold change ([1]; H295R, concentration 100 uM): 1.612 fold change
- corticosterone mean fold change ([1]; H295R, concentration 100 uM): 3.324 fold change
- cortisol mean fold change ([1]; H295R, concentration 100 uM): 2.203 fold change
- testosterone mean fold change ([1]; H295R, concentration 100 uM): 1.74 fold change
- effect on steroid hormone levels compared with vehicle-treated controls ([1]; 48 h): increased levels of progestogens, androgens, estrogens, and corticosteroids

Structure (SMILES): CC(C)Nc1nc(N)nc(Cl)n1 [Deethyl-atrazine]
- effect on steroid hormone levels compared with vehicle-treated controls ([1]; 48 h): increased levels of progestogens, androgens, estrogens, and corticosteroids

Structure (SMILES): O=C(O)C(F)(OC(F)(F)C(F)(F)C(F)(F)F)C(F)(F)F (stereo not drawn) [GenX, Hexafluoropropylene oxide dimer acid]
- IC50 [2]: 30.3 µM
- % FITCT4 bound to TTR ([3]; 0.1 uM): 92.2482%
- % FITCT4 bound to TTR ([3]; 0.3 uM): 91.7718%
- % FITCT4 bound to TTR ([3]; 1 uM): 89.1133%
- % FITCT4 bound to TTR ([3]; 3 uM): 86.8896%
- % FITCT4 bound to TTR ([3]; 10 uM): 74.6529%
- % FITCT4 bound to TTR ([3]; 30 uM): 53.6966%
- % FITCT4 bound to TTR ([3]; 100 uM): 24.7329%
- IC10 competing with FITC-T4 for binding to TTR [3]: 1.9 µM
- IC50 [3]: 31.9 µM

Structure (SMILES): O=S(=O)(O)C(F)(F)C(F)(F)C(F)(F)C(F)(F)F [PFBS, Perfluorobutane sulfonic acid]
- IC50 [2]: 8.2 µM
- % FITCT4 bound to TTR ([3]; 0.1 uM): 97.3072%
- % FITCT4 bound to TTR ([3]; 0.3 uM): 93.7406%
- % FITCT4 bound to TTR ([3]; 1 uM): 89.6282%
- % FITCT4 bound to TTR ([3]; 3 uM): 73.6529%
- % FITCT4 bound to TTR ([3]; 10 uM): 44.4619%
- % FITCT4 bound to TTR ([3]; 30 uM): 21.5802%
- % FITCT4 bound to TTR ([3]; 100 uM): 11.5263%
- IC10 competing with FITC-T4 for binding to TTR [3]: 0.82 µM
- IC50 [3]: 8.3 µM

Structure (SMILES): O=C(O)C(F)(F)C(F)(F)C(F)(F)C(F)(F)C(F)(F)F [PFHxA, Perfluorohexanoic acid]
- IC50 [2]: 2.5 µM
- % FITCT4 bound to TTR ([3]; 0.1 uM): 90.7115%
- % FITCT4 bound to TTR ([3]; 0.3 uM): 81.4177%
- % FITCT4 bound to TTR ([3]; 1 uM): 77.1918%
- % FITCT4 bound to TTR ([3]; 3 uM): 44.5805%
- % FITCT4 bound to TTR ([3]; 10 uM): 21.8899%
- % FITCT4 bound to TTR ([3]; 30 uM): 12.6684%
- % FITCT4 bound to TTR ([3]; 100 uM): 2.971%
- IC10 competing with FITC-T4 for binding to TTR [3]: 0.20 µM
- IC50 [3]: 2.6 µM

Structure (SMILES): NC(Cc1cc(I)c(Oc2cc(I)c(O)c(I)c2)c(I)c1)C(=O)O (stereo not drawn) [T4, thyroxine, reference compound]
- IC10 competing with FITC-T4 for binding to TTR [3]: 0.0024 µM
